Reference: ChEMBL document CHEMBL5252664, “Orally Active Forms of DMT, 5-MeO-DMT, and Long-Acting MDMA for the Treatment of Neuropsychiatric Disorders” (ACS Med Chem Lett, 2023)

How the values were obtained:
Format in all cases: ADME, organism-based
Details in all cases: in vivo
[1] = Tmax in Sprague-Dawley rat at 10 mg/kg, po
[2] = AUC (0 to last) in Sprague-Dawley rat at 10 mg/kg, po; parameters: dose 10 mg/kg, route po
[3] = Half life in Sprague-Dawley rat at 10 mg/kg, po
[4] = Cmax in Sprague-Dawley rat at 10 mg/kg, po; parameters: dose 10 mg/kg, route po

Structure (SMILES): COc1ccc2c(c1)c(CCN(C)C)cn2C(=O)c1ccccc1
- Tmax [1]: 1 h
- AUC(0-t) [2]: 66.5 ng·h/mL
- half-life [3]: 10.3 h
- Cmax [4]: 17.7 ng/mL

Structure (SMILES): COc1ccc2c(c1)c(CCN(C)C)cn2C(=O)[C@@H](N)C(C)C.Cl.Cl
- Tmax [1]: 2 h
- AUC(0-t) [2]: 155 ng·h/mL
- half-life [3]: 5.54 h
- Cmax [4]: 11.1 ng/mL

Structure (SMILES): C[C@H](N)C(=O)n1cc(CCN(C)C)c2ccccc21.Cl.Cl
- Tmax [1]: 0.5 h
- AUC(0-t) [2]: 126 ng·h/mL
- half-life [3]: 4.08 h
- Cmax [4]: 20.2 ng/mL

Structure (SMILES): COc1ccc2c(c1)c(CCN(C)C)cn2C(=O)CCCC(C)=O
- Tmax [1]: 1 h
- AUC(0-t) [2]: 362 ng·h/mL
- half-life [3]: 2.02 h
- Cmax [4]: 106 ng/mL

Structure (SMILES): CN(C)CCc1cn(C(=O)CN(C)C(=O)[C@H](N)Cc2ccccc2)c2ccccc12.Cl.Cl
- Tmax [1]: 0.5 h
- AUC(0-t) [2]: 7.17 ng·h/mL
- half-life [3]: 3.31 h
- Cmax [4]: 2.43 ng/mL
